Experimental findings from patent US6509328B1, “Glutamate receptor antagonists” (Hoffmann-La Roche Inc., priority 1999, dated 2003) are described below.

Bounds are passed on as bounds.

Broadly, the melting point is the temperature of the solid-liquid transition.

Turning to `CS(=O)(=O)N1CC=C(c2ccc3c(c2)NC(=O)CC(c2cccc(C#N)c2)=N3)CC1` [Example 46, 3-[7-(1-Methanesulfonyl-1,2,3,6-tetrahydro-pyridin-4-yl)-4-oxo-4,5-dihydro-3H-benzo [b][1,4]diazepin-2-yl]-benzonitrile], the melting point was 211 to 213 °C (dec.).
Next, `CC(=O)N1CC=C(c2ccc3c(c2)NC(=O)CC(c2cccc(C#N)c2)=N3)CC1` [Example 47, 3-[7-(1-Acetyl-1,2,3,6-tetrahydro-pyridin-4-yl)-4-oxo-4,5-dihydro-3H-benzo [b][1,4]diazepin-2-yl]-benzonitrile]: 220 to 222 °C (dec.).
In the case of `N#Cc1cccc(C2=Nc3ccc(C#Cc4cccs4)cc3NC(=O)C2)c1` [Example 50, 3-(4-Oxo-7-thiophen-2-ylethynyl-4,5-dihydro-3H-benzo [b][1,4]diazepin-2-yl)-benzonitrile] it was 235 to 238 °C (dec.).
Next, `N#Cc1cccc(C2=Nc3ccc(-c4cccc(F)c4F)cc3NC(=O)C2)c1` [Example 51, 3-[7-(2,3-Difluoro-phenyl)-4-oxo-4,5-dihydro-3H-benzo [b][1,4]diazepin-2-yl]-benzonitrile]: 240 °C; `N#Cc1cccc(C2=Nc3ccc(-c4ccc(-c5ccccc5)cc4)cc3NC(=O)C2)c1` [Example 54, 3-(7-Biphenyl-4-yl-4-oxo-4,5-dihydro-3H-benzo [b][1,4]diazepin-2-yl)-benzonitrile]: 251 to 253 °C; `N#Cc1cccc(C2=Nc3ccc(C#Cc4ccc(OC(F)(F)F)cc4)cc3NC(=O)C2)c1` [Example 55, 3-[4-Oxo-7-(4-trifluoromethoxy-phenylethynyl)-4,5-dihydro-3H-benzo [b][1,4]diazepin-2-yl]-benzonitrile]: 239 to 241 °C.
In turn, `O=C1CC(c2cccc([N+](=O)[O-])c2)=Nc2ccc(C#Cc3ccccc3)cc2N1` [Example 56, 4-(3-Nitro-phenyl)-8-phenylethynyl-1,3-dihydro-benzo [b][1,4]diazepin-2-one] gave a melting point of 228 to 229 °C.
`COc1ccc(-c2ccc3c(c2)NC(=O)CC(c2cccc(-n4ccnc4)c2)=N3)cc1` [Example 61, 4-(3-Imidazol-1-yl-phenyl)-8-(4-methoxy-phenyl)-1,3-dihydro-benzo [b][1,4]diazepin-2-one] displayed a melting point of 207 to 208 °C.
For `O=C1CC(c2cccc(-n3ccnc3)c2)=Nc2ccc(C#Cc3ccccc3F)cc2N1` [Example 63, 8-(2-Fluoro-phenylethynyl)-4-(3-imidazol-1-yl-phenyl)-1,3-dihydro-benzo [b][1,4]diazepin-2-one], the melting point was 201 to 203 °C.
Next, `O=C1CC(c2cccc(-n3cncn3)c2)=Nc2ccc(-c3ccc(F)cc3)cc2N1` [Example 64, 8-(4-Fluoro-phenyl)-4-(3-[1,2,4]triazol-1-yl-phenyl)-1,3-dihydro-benzo [b][1,4]diazepin-2-one]: 241 to 245 °C; `N#Cc1ccc(-c2ccc3c(c2)NC(=O)CC(c2cccc(C#N)c2)=N3)cc1` [Example 65, 3-[7-(4-Cyano-phenyl)-4-oxo-4,5-dihydro-3H-benzo [b][1,4]diazepin-2-yl]-benzonitrile]: 240 °C (dec.); `N#Cc1ccc(-c2ccc3c(c2)NC(=O)CC(c2cccc(-n4ccnc4)c2)=N3)cc1` [Example 66, 4-[2-(3-Imidazol-1-yl-phenyl)-4-oxo-4,5-dihydro-3H-benzo [b][1,4]diazepin-7-yl]-benzonitrile]: 209 to 213 °C (dec.).
Next, `O=C1CC(c2cccc([N+](=O)[O-])c2)=Nc2ccc(-c3ccc(F)cc3)cc2N1` [Example 67, 8-(4-Fluoro-phenyl)-4-(3-nitro-phenyl)-1,3-dihydro-benzo [b][1,4]diazepin-2-one]: 220 to 226 °C (dec.).
`O=C1CC(c2ccnc(-n3ccnc3)c2)=Nc2ccc(-c3ccc(F)cc3)cc2N1` [Example 69, 8-(4-Fluoro-phenyl)-4-(2-imidazol-1-yl-pyridin-4-yl)-1,3-dihydro-benzo [b][1,4]diazepin-2-one]: the melting point is 213 °C (dec.).
As for `Nc1cccc(C2=Nc3ccc(-c4ccc(F)cc4)cc3NC(=O)C2)c1` [Example 70, 4-(3-Amino-phenyl)-8-(4-fluoro-phenyl)-1,3-dihydro-benzo [b][1,4]diazepin-2-one], the melting point is 210 to 217 °C (dec.).
Next, `CS(=O)(=O)Nc1cccc(C2=Nc3ccc(-c4ccc(F)cc4)cc3NC(=O)C2)c1` [Example 73, N-{3-[7-(4-Fluoro-phenyl)-4-oxo-4,5-dihydro-3H-benzo [b][1,4]diazepin-2-yl]-phenyl}-methanesulfonamide]: 232 to 235 °C; `O=C1CC(c2cccc(-n3ccnc3)c2)=Nc2ccc(-c3ccc(OCc4ccccc4)nc3)cc2N1` [Example 74, 8-(6-Benzyloxy-pyridin-3-yl)-4-(3-imidazol-1-yl-phenyl)-1,3-dihydro-benzo [b][1,4]-diazepin-2-one]: 225 to 231 °C.
Take `Cc1cn(-c2cccc(C3=Nc4ccc(C#Cc5ccc(F)cc5)cc4NC(=O)C3)c2)cn1` [Example 78, 8-(4-Fluoro-phenylethynyl)-4-[3-(4-methyl-imidazol-1-yl)-phenyl]-1,3-dihydro-benzo [b][1,4]diazepin-2-one]: the melting point was found to be 210 °C.
Next, `Cc1nccn1-c1cccc(C2=Nc3ccc(-c4ccccc4F)cc3NC(=O)C2)c1` [Example 81, 8-(2-Fluoro-phenyl)-4-[3-(2-methyl-imidazol-1-yl)-phenyl]-1,3-dihydro-benzo[b][1,4]diazepin-2-one]: 187 °C; `Cc1nccn1-c1cccc(C2=Nc3ccc(-c4ccc(F)cc4)cc3NC(=O)C2)c1` [Example 82, 8-(4-Fluoro-phenyl)-4-[3-(2-methyl-imidazol-1-yl)-phenyl]-1,3-dihydro-benzo[b][1,4]diazepin-2-one]: 227 °C; `N#Cc1ccsc1C1=CC(=O)Nc2cc(-c3ccccc3F)ccc2N1` [Example 84, 2-[7-(2-Fluoro-phenyl)-4-oxo-4,5-dihydro-1H-benzo [b][1,4]diazepin-2-yl]-thiophene-3-carbonitrile]: 238 to 240 °C.
`O=C1CC(c2cccc(-n3cnnn3)c2)=Nc2ccc(-c3ccccc3F)cc2N1` [Example 88, 8-(2-Fluoro-phenyl)-4-(3-tetrazol-1-yl-phenyl)-1,3-dihydro-benzo [b][1,4]diazepin-2-one]: the melting point lay within 179 to 180 °C.
In the case of `Cc1cn(-c2cccc(C3=Nc4ccc(-c5ccc(F)cc5)cc4NC(=O)C3)c2)c(C)n1` [Example 89, 4-[3-(2,4-Dimethyl-imidazol-1-yl)-phenyl]-8-(4-fluoro-phenyl)-1,3-dihydro-benzo[b][1,4]diazepin-2-one] it was 188 °C; in that of `Cc1cn(-c2cccc(C3=Nc4ccc(C#Cc5ccccc5)cc4NC(=O)C3)c2)c(C)n1` [Example 90, 4-[3-(2,4-Dimethyl-imidazol-1-yl)-phenyl]-8-phenylethynyl-1,3-dihydro-benzo[b][1,4]diazepin-2-one], 134 °C (dec.); in that of `O=C1CC(c2sccc2Cl)=Nc2ccc(-c3ccc(F)cc3)cc2N1` [Example 91, 4-(3-Chloro-thiophen-2-yl)-8-(4-fluoro-phenyl)-1,3-dihydro-benzo [b][1,4]diazepin-2-one], 255 to 256 °C.
`N#Cc1cccc(C2=Nc3ccc(-c4cccc(F)c4)cc3NC(=O)C2)c1` [Example 96, 3-[7-(3-Fluoro-phenyl)-4-oxo-4,5-dihydro-3H-benzo [b][1,4]diazepin-2-yl]-benzonitrile] displayed a melting point of 232 to 235 °C.
As for `O=C1CC(c2cccc(-n3cnnc3)c2)=Nc2ccc(-c3ccccc3F)cc2N1` [Example 99, 8-(2-Fluoro-phenyl)-4-(3-[1,2,4]triazol-4-yl-phenyl)-1,3-dihydro-benzo [b][1,4]diazepin-2-one], the melting point turned out to be 198 °C.
In the case of `N#Cc1ccc(C2=Nc3ccc(-c4ccccc4F)cc3NC(=O)C2)s1` [Example 100, 5-[7-(2-Fluoro-phenyl)-4-oxo-4,5-dihydro-3H-benzo [b][1,4]diazepin-2-yl]-thiophene-2-carbonitrile] it was > 250 °C; in that of `Cc1cn(-c2cccc(C3=Nc4ccc(-c5ccccc5F)cc4NC(=O)C3)c2)c(C)n1` [Example 101, 4-[3-(2,4-Dimethyl-imidazol-1-yl)-phenyl]-8-(2-fluoro-phenyl)-1,3-dihydro-benzo[b][1,4]diazepin-2-one], 92 °C; in that of `COCSc1nccn1-c1cccc(C2=Nc3ccc(-c4ccccc4F)cc3NC(=O)C2)c1` [Example 102, 8-(2-Fluoro-phenyl)-4-[3-(2-methoxymethylsulfanyl-imidazol-1-yl)-phenyl]-1,3-dihydro-benzo[b][1,4]diazepin-2-one], 189 to 190 °C.
In the case of `N#Cc1ccc(F)c(C2=Nc3ccc(-c4ccccc4F)cc3NC(=O)C2)c1` [Example 103, 4-Fluoro-3-[7-(2-fluoro-phenyl)-4-oxo-4,5-dihydro-3H-benzo [b][1,4]diazepin-2-yl]-benzonitrile] it was 239 °C; in that of `CC(C)c1ccc2c(c1)NC(=O)CC(c1ccnc(C#N)c1)=N2` [Example 105, 4-(7-Isopropyl-4-oxo-4,5-dihydro-3H-benzo [b][1,4]diazepin-2-yl)-pyridine-2-carbonitrile], 173 to 178 °C.
In the case of `Cc1cn(-c2nc(C3=Nc4ccc(-c5ccccc5F)cc4NC(=O)C3)cs2)cn1` [Example 106, 8-(2-Fluoro-phenyl)-4-[2-(4-methyl-imidazol-1-yl)-thiazol-4-yl]-1,3-dihydro-benzo[b][1,4]diazepin-2-one] it was 229 °C.
In turn, `Cc1cn(-c2nc(C3=Nc4ccc(-c5ccc(F)cc5)cc4NC(=O)C3)cs2)cn1` [Example 107, 8-(4-Fluoro-phenyl)-4-[2-(4-methyl-imidazol-1-yl)-thiazol-4-yl]-1,3-dihydro-benzo[b][1,4]diazepin-2-one] registered a melting point of 229 °C.
Next, `N#Cc1cccc(C2=Nc3ccc(CCc4ccccc4)cc3NC(=O)C2)c1` [Example 108, 3-(4-Oxo-7-phenethyl-4,5-dihydro-3H-benzo[b][1,4]diazepin-2-yl)-benzonitrile]: 212 to 214 °C.
